Here are results for one substance from US7425548B2, “Materials and methods for immune system stimulation” (Variety Chidren's Hospital, priority 2004, dated 2008).

The subject of one series is RAW 264.7 cells. Description: RR1-induced TNF-α synthesis with and without CAPE, ELISA. To be noted: RAW 264.7, RR1 0-1000 μg/ml. It counts as cell-based, mouse. The protocol:
The cells were pre-incubated with 10 μg/ml CAPE for 1 hour in 0.5% FBS containing DMEM medium and replaced with medium containing RR1 at varying concentrations for 4 hour at 37° C. The medium was analyzed for secreted TNF-α using ELISA protocol.
RR1-induced TNF-α synthesis. RAW 264.7 cells (0.5×10^6/ml) were plated on 6-well plates with DMEM medium containing 0.5% FBS (starvation). Once the cells were attached, medium was replaced, RR1 was added at 0, 100, 500 and 1000 μg/ml doses and incubated at 37° C. for 24 hours. The medium was analyzed for the secreted TNF-α using the ELISA kit (BD BIOSCIENCES kit, San Jose, Calif.) based on the manufacturer's protocol.
To determine the effect of NF-κB inhibitor CAPE on TNF-α synthesis, RAW 264.7 cells were treated with 10 μg/ml of CAPE for 1 hour at 37° C. followed by treatment with RR1 (0-1000 μg/ml) overnight in the incubator. The secreted TNF-α in the medium was analyzed using ELISA (BD BIOSCIENCES, San Jose, Calif.).
On the technique in general: In an ELISA, binding on a coated surface is turned into a signal by an enzyme label.

For series [1], the system named is normal lymphocytes. Description: Nitric oxide (NO) synthesis, Griess assay. It counts as cell-based, human. To be noted: RR1 0-100 μg/ml, 24 hours. How it is done:
Normal lymphocytes from healthy volunteers were treated with RR1 (0-100 μg) at 37° C. for 24 in a CO2 incubator in MEM medium. The supernatant medium was analyzed for the production of NO using assay kit from Active Motif, Carlsbad, Calif. and data analyzed using ANOVA (p=0.109).
The NO quantification was assayed by Nitric Oxide quantification kit (ACTIVE MOTIF, Carlsbad, Calif.) as per the manufacturer's protocol. Briefly, lymphocytes (10^6/ml) were incubated with varying concentrations of RR1 (0-100 μg/ml) for 24 hours in a nitrate free medium (DULBECO Minimum Essential Medium) at 37° C. The cell culture supernatant (70 μl) was pipetted into the wells of a 96-well plate along with 20 μl reconstituted co-factor and 10 μl nitrate reductase enzyme solution. The plate was shaken at 150 rpm on a plate shaker for 30 minutes at room temperature. Griess reagents A and B (50 μl each) were added into each well, allowed the color to develop for 20 minutes and the absorbance was taken at 540 nm with a reference wavelength of 620 nm in the BIO-RAD plate reader.
Background: The Griess reaction detects nitrite, a stable product of nitric oxide.

The test system of the next series is CEM tumor cell line. The series is described as follows: MTT cytotoxicity / cell proliferation assay. In kind it is cell-based, human. To be noted: 24 hours, concentrations as high as 1000 μg/ml. The protocol:
(§1) FIGS. 4A-4B show cytotoxic analysis of RR1 in normal lymphocytes (a) and tumor cell lines (b). Cells (10^6) were treated with RR1 for 24 hours and cytotoxicity assay performed using MTT cell proliferation kit (Roche Biochemicals). The percentage of surviving cells over control was plotted against RR1 concentrations.
(§2) Immunostimulating Properties. To measure the immune stimulatory property of RR1, the activation of the different subsets of lymphocytes, syntheses of cytokines such as interleukin (IL)-1β, IL-2, IL-4, IL-6, IL-10, IL-12 p70 and p40, IL-18, interferon (IFN)-α and γ, Tumor Necrosis factor (TNF)-α and β, monocyte chemo-attractant protein (MCP)-1, synthesis of nitric oxide (NO), and the extent of oxidative stress elicited in human lymphocytes was analyzed. Normal lymphocytes were isolated by the histopaque density gradient method from fresh blood drawn from healthy volunteers and utilized for various assays. Human leukemic (CEM) and multidrug resistant (CEM/VLB) cell lines were grown in RPMI medium supplemented with 10% fetal bovine serum and antibiotics in 5% CO2 incubator at 37° C.

Series [2] deals with normal lymphocytes. Description: MTT cytotoxicity / cell proliferation assay. In kind it is cell-based, human. To be noted: 24 hours, concentrations as high as 1000 μg/ml. How it is done:
as §1, §2

The test system of another series is CEM/VLB tumor cell line. The series is described as follows: MTT cytotoxicity / cell proliferation assay. In kind it is cell-based, human. To be noted: 24 hours, concentrations as high as 1000 μg/ml. The protocol: as §1, §2
For series [3], the system named is human leukemic cells (CEM). Description: Cytotoxicity of RR1 treated lymphocytes (functional assay, active caspase-3). It counts as cell-based. To be noted: RR1 0-100 μg/ml, 24 hours, then co-incubation with CEM. How it is done:
Normal lymphocytes were treated with RR1 (0-100 μg/ml) for 24 hours in RPMI medium. The cells were washed and co-incubated with PKH26-labeled human leukemic CEM cells for 12 hours for the active NK cells to lyse the tumor cells. The cell mixtures were stained with FITC-labeled and activated caspase-3 monoclonal antibody. The percentage of PKH26+ and Caspase-3+ cells were quantified by analyzing in a Beckman-Coulter Elite flow cytometer (**p=0.01).
Cytotoxicity of RR1 treated lymphocytes. To evaluate the enhanced cytotoxicity of activated lymphocytes, a functional assay was adopted using RR1-activated lymphocytes as effecter cells and human leukemic cells (CEM) as targets (Liu, L. et al. Nat. Med., 2002, 8:185-189; Jerome, K. R. et al. Nat. Med., 2003, 9:4-5). Briefly, normal lymphocytes (10^6/ml) were treated with different concentrations of RR1 in RPMI medium for 24 hours in a CO2 incubator at 37° C. […] The percentage of cells killed by the activated NK cells was determined by fixing the mixture with 1 ml of 2% paraformaldehyde solution for 30 minutes on ice followed by suspending in 0.5% Tween 20 in PBS. The cell mixture was stained with 7.5 μl of anti-active caspase-3-FITC antibody (BD Biosciences, CA) for 30 minutes at room temperature, washed with PBS and analyzed in a Coulter Elite Flow Cytometer.

In the case of (1,4)-α-D-glucan [RR1], the “synthesis of TNF-α” value in the series on RAW 264.7 cells was “dose-dependent increase”. Moreover, the “increase in NO” value with normal lymphocytes [1] is on record as not above 21%. For the same substance, the “direct cytotoxic or cell proliferating effect (MTT)” value in the series on CEM tumor cell line, in the series with normal lymphocytes [2] and in the series on CEM/VLB tumor cell line was “no direct cytotoxic or cell proliferating effect” throughout. Moreover, the “killing of tumor cells by RR1-treated normal lymphocytes” value in series [3] was “dose-dependent enhancement of cytotoxicity”.
